Patent US9802927B2, “Oxadiazine compounds and methods of use thereof” (Denali Therapeutics, Inc., priority 2015, dated 2017)

System: Aβ42
Assay: In vitro cell screening assay in H4 cells expressing human APP751: Aβ42 by sandwich ELISA
Type: cell-based
Details: compounds 0.003-10 μM, incubated overnight (16-18 h), sandwich ELISA of supernatant
Description: Human neuroglioma H4 cells were transfected with a pcDNA3.1 plasmid expressing human wild type APP751 cDNA and a stable cell line was generated using G418 selection. Cells were plated at 15,000 cells/well in Costar 96-well plates and placed at 37° C. and 5% CO2. Six hours after plating, cells were washed three times with Pro293™ chemically defined medium, followed by addition of compounds (0.003-10 μM, final DMSO concentration of 0.33%). Plates were incubated overnight (16-18 h) and supernatant was removed for quantification of Aβ peptides by sandwich ELISA. Cytotoxicity was evaluated using Cell-Titer 96W AQueous One Solution Cell Proliferation Assay according to the manufacturer's protocol.
Aβ peptide levels were quantified by sandwich ELISA. 96-well plates were coated with C-terminal specific Aβ antibodies recognizing either Aβ37, Aβ38, Aβ40, Aβ42, Aβ43 or a N-terminal specific Aβ antibody to detect Aβ 1-x. Plates were then blocked overnight at 4° C. with 1% bovine serum albumin (BSA) in PBS-T. Plates were washed and 100 μl of cultured cell supernatant or synthetic Aβ peptide standards and a detection antibody (4G8-HRP) were applied to the blocked plate and incubated overnight at 4° C. The next day, wells were washed before the addition of detection substrate (TMB peroxidase). Plates were then read for absorbance at 450 nm on a Molecular Devices SpectraMax M5e Microplate Reader.
Compound-treated samples were normalized to samples treated with DMSO alone (no inhibition) and to samples treated with DAPT. EC50 values were calculated from values reported as percent of DMSO controls using nonlinear regression, based on a sigmoidal dose response (variable slope) model. GraphPAD software from Prism used for calculation.

| Compound | EC50 [µM] | EC50 (Homo sapiens) [µM] |
| --- | --- | --- |
| COc1nc(C2=NOCC(CC(C)C)N2)ccc1-n1cnc(C)c1 (single isomer, unassigned; (-)) [Example 154B, (−)-5-isobutyl-3-(6-methoxy-5-(4-methyl-1H-imidazol-1-yl)pyridin-2-yl)-5,6-dihydro-4H-1,2,4-oxadiazine] | 0.199 |  |
| CCC1CON=C(c2ccc(-n3cnc(C)c3)c(OC)n2)N1 (single isomer, unassigned) [Example 133A, 5-ethyl-3-(6-methoxy-5-(4-methyl-1H-imidazol-1-yl)pyridin-2-yl)-5,6-dihydro-4H-1,2,4-oxadiazine] | > 3 |  |
| COc1nc(C2=NOCC(C)N2)ccc1-n1cnc(C)c1 (single isomer, unassigned; (+)) [Example 149A, (+)-3-(6-methoxy-5-(4-methyl-1H-imidazol-1-yl)pyridin-2-yl)-5-methyl-5,6-dihydro-4H-1,2,4-oxadiazine] |  | > 3 |
| COc1nc(C2=NOCC(c3ccc(F)c(Cl)c3)N2)ccc1-n1cnc(C)c1 (single isomer, unassigned; (+)) [Example 108B, (+)-5-(3-chloro-4-fluorophenyl)-3-(6-methoxy-5-(4-methyl-1H-imidazol-1-yl)pyridin-2-yl)-5,6-dihydro-4H-1,2,4-oxadiazine] | 0.0232 |  |
| COc1nc(C2=NOCC(c3ccc4c(c3)OC(F)(F)O4)N2)ccc1-n1cnc(C)c1 (single isomer, unassigned; (+)) [Example 225B] | 0.014 |  |
| COc1nc(C2=NOCC(c3ccc4nc(C)sc4c3)N2)ccc1-n1cnc(C)c1 (single isomer, unassigned; (+)) [Example 238B, (+)-3-(6-methoxy-5-(4-methyl-1H-imidazol-1-yl)pyridin-2-yl)-5-(2-methylbenzo[d]thiazol-6-yl)-5,6-dihydro-4H-1,2,4-oxadiazine] | 0.113 |  |
| COc1nc(C2=NOCC(c3cc4cc(F)ccc4o3)N2)ccc1-n1cnc(C)c1 (single isomer, unassigned; (+)) [Example 84B, (+)-5-(5-fluorobenzofuran-2-yl)-3-(6-methoxy-5-(4-methyl-1H-imidazol-1-yl)pyridin-2-yl)-5,6-dihydro-4H-1,2,4-oxadiazine] | 0.0297 |  |
| COc1nc(C2=NOCC(c3cn(C)c4cc(F)cc(F)c34)N2)ccc1-n1cnc(C)c1 (single isomer, unassigned; (+)) [Example 226A, (+)-5-(4,6-difluoro-1-methyl-1H-indol-3-yl)-3-(6-methoxy-5-(4-methyl-1H-imidazol-1-yl)pyridin-2-yl)-5,6-dihydro-4H-1,2,4-oxadiazine] | 0.0094 |  |
| COc1nc(C2=NOCC(c3ccc(Cl)c(C4CC4)c3)N2)ccc1-n1cnc(C)c1 (single isomer, unassigned; (-)) [Example 239A, (−)-5-(4-chloro-3-cyclopropylphenyl)-3-(6-methoxy-5-(4-methyl-1H-imidazol-1-yl)pyridin-2-yl)-5,6-dihydro-4H-1,2,4-oxadiazine] | 0.92 |  |
| COc1nc(C2=NOCC(c3cccc(S(C)(=O)=O)c3)N2)ccc1-n1cnc(C)c1 (single isomer, unassigned; (+)) [Example 214B, (+)-3-(6-methoxy-5-(4-methyl-1H-imidazol-1-yl)pyridin-2-yl)-5-(3-(methylsulfonyl)phenyl)-5,6-dihydro-4H-1,2,4-oxadiazine] | 0.904 |  |
| COc1nc(C2=NOCC(c3cc4ccc(Cl)cc4o3)N2)ccc1-n1cnc(C)c1 (single isomer, unassigned; (+)) [Example 78B, (+)-5-(6-chlorobenzofuran-2-yl)-3-(6-methoxy-5-(4-methyl-1H-imidazol-1-yl)pyridin-2-yl)-5,6-dihydro-4H-1,2,4-oxadiazine] | 0.0089 |  |
| COc1nc(C2=NOCC(c3cn(C)c4cc(F)cc(F)c34)N2)ccc1-n1cnc(C)c1 (single isomer, unassigned; (-)) [Example 226B, (−)-5-(4,6-difluoro-1-methyl-1H-indol-3-yl)-3-(6-methoxy-5-(4-methyl-1H-imidazol-1-yl)pyridin-2-yl)-5,6-dihydro-4H-1,2,4-oxadiazine] | 0.0714 |  |
| COc1nc(C2=NOCC(c3ccc(C#N)cc3)N2)ccc1-n1cnc(C)c1 (single isomer, unassigned; (+)) [Example 151B, (+)-4-(3-(6-methoxy-5-(4-methyl-1H-imidazol-1-yl)pyridin-2-yl)-5,6-dihydro-4H-1,2,4-oxadiazin-5-yl) benzonitrile] | 0.451 |  |
| COc1nc(C2=NOCC(c3cn(C)c4ccc(F)c(F)c34)N2)ccc1-n1cnc(C)c1 (single isomer, unassigned; (+)) [Example 220B, (+)-5-(4,5-difluoro-1-methyl-1H-indol-3-yl)-3-(6-methoxy-5-(4-methyl-1H-imidazol-1-yl)pyridin-2-yl)-5,6-dihydro-4H-1,2,4-oxadiazine] | 0.0055 |  |
| COc1nc(C2=NOCC(c3cn(C)c4c(F)cccc34)N2)ccc1-n1cnc(C)c1 (single isomer, unassigned; (+)) [Example 231B, (+)-5-(7-fluoro-1-methyl-1H-indol-3-yl)-3-(6-methoxy-5-(4-methyl-1H-imidazol-1-yl)pyridin-2-yl)-5,6-dihydro-4H-1,2,4-oxadiazine] | 0.0108 |  |
| COc1nc(C2=NOCC(c3cn(C)c4ccc(F)c(F)c34)N2)ccc1-n1cnc(C)c1 (single isomer, unassigned; (-)) [Example 220A, (−)-5-(4,5-difluoro-1-methyl-1H-indol-3-yl)-3-(6-methoxy-5-(4-methyl-1H-imidazol-1-yl)pyridin-2-yl)-5,6-dihydro-4H-1,2,4-oxadiazine] | 0.103 |  |
| COc1ccc2c(c1)c(C1CON=C(c3ccc(-n4cnc(C)c4)c(OC)n3)N1)cn2C (single isomer, unassigned; (+)) [Example 250B, (+)-5-(5-methoxy-1-methyl-1H-indol-3-yl)-3-(6-methoxy-5-(4-methyl-1H-imidazol-1-yl)pyridin-2-yl)-5,6-dihydro-4H-1,2,4-oxadiazine] | 0.0158 |  |
| COc1nc(C2=NOCC(c3cn(C)c4cc(F)ccc34)N2)ccc1-n1cnc(C)c1 (single isomer, unassigned; (+)) [Example 192B, (+)-5-(6-fluoro-1-methyl-1H-indol-3-yl)-3-(6-methoxy-5-(4-methyl-1H-imidazol-1-yl)pyridin-2-yl)-5,6-dihydro-4H-1,2,4-oxadiazine] | 0.0085 |  |
| COc1nc(C2=NOCC(c3ccc(Cl)c(F)c3)N2)ccc1-n1cnc(C)c1 (single isomer, unassigned; (+)) [Example 106B, (+)-5-(4-chloro-3-fluorophenyl)-3-(6-methoxy-5-(4-methyl-1H-imidazol-1-yl)pyridin-2-yl)-5,6-dihydro-4H-1,2,4-oxadiazine] | 0.0229 |  |
| COc1nc(C2=NOCC(c3ccc(C4CC4)c(Cl)c3)N2)ccc1-n1cnc(C)c1 (single isomer, unassigned; (-)) [Example 243A, (−)-5-(3-chloro-4-cyclopropylphenyl)-3-(6-methoxy-5-(4-methyl-1H-imidazol-1-yl)pyridin-2-yl)-5,6-dihydro-4H-1,2,4-oxadiazine] | 0.25 |  |
| COc1nc(C2=NOCC(c3cnn(C)c3)N2)ccc1-n1cnc(C)c1 (single isomer, unassigned; (-)) [Example 166A, (−)-3-(6-methoxy-5-(4-methyl-1H-imidazol-1-yl)pyridin-2-yl)-5-(1-methyl-1H-pyrazol-4-yl)-5,6-dihydro-4H-1,2,4-oxadiazine] |  | > 3 |
| COc1nc(C2=NOCC(c3cn(C)c4cccc(Cl)c34)N2)ccc1-n1cnc(C)c1 (single isomer, unassigned; (+)) [Example 229A, (+)-5-(4-chloro-1-methyl-1H-indol-3-yl)-3-(6-methoxy-5-(4-methyl-1H-imidazol-1-yl)pyridin-2-yl)-5,6-dihydro-4H-1,2,4-oxadiazine] |  | 0.0288 |
| COc1cc(Cl)c2c(C3CON=C(c4ccc(-n5cnc(C)c5)c(OC)n4)N3)cn(C)c2c1 (single isomer, unassigned; (+)) [Example 261A, (+)-5-(4-chloro-6-methoxy-1-methyl-1H-indol-3-yl)-3-(6-methoxy-5-(4-methyl-1H-imidazol-1-yl)pyridin-2-yl)-5,6-dihydro-4H-1,2,4-oxadiazine] |  | 0.0387 |
| COc1nc(C2=NOCC(c3cn(C)c4cccc(C#N)c34)N2)ccc1-n1cnc(C)c1 (single isomer, unassigned; (-)) [Example 247B, (−)-3-(3-(6-methoxy-5-(4-methyl-1H-imidazol-1-yl)pyridin-2-yl)-5,6-dihydro-4H-1,2,4-oxadiazin-5-yl)-1-methyl-1H-indole-4-carbonitrile] | 0.0792 |  |
| COc1nc(C2=NOCC(C)N2)ccc1-n1cnc(C)c1 (single isomer, unassigned; (-)) [Example 149B, (−)-3-(6-methoxy-5-(4-methyl-1H-imidazol-1-yl)pyridin-2-yl)-5-methyl-5,6-dihydro-4H-1,2,4-oxadiazine] | > 3 |  |
